Results taken from patent US20140227335A1 (priority 2012, published 2014).
Entries after “also recorded” stand apart in the source; their conditions may differ. Like-named read-outs stand apart in the source and are kept apart here.

Assays:
[1] = test system: Dengue virus (DenV), serotype 2 New Guinea C strain; experiment: Dengue virus plaque assay on Vero cells; assay type: cell-based; conditions: 300 μM PD
VSV-Gpp [2] = test system: VSV-Gpp
HCVcc = assay type: cell-based, HCV
HIV-1 92RW016 = experiment: Anti-HIV efficacy in fresh human PBMC (reverse transcriptase activity); assay type: cell-based; conditions: Human immunodeficiency virus 1, PBMC, 168 h; 92RW016 (clade A, R5); PBMCs, MOI = 0.1, 7 days
HIV-1 92UG024 = experiment: HIV infectivity assay in TZM-bl cells; assay type: cell-based; conditions: 92UG024 (clade D, X4); for IC50: Human immunodeficiency virus 1, TZM-bl
HIV-1 92TH599 = experiment: HIV infectivity assay in TZM-bl cells; assay type: cell-based; conditions: 92TH599 (clade B, X4); for IC50: Human immunodeficiency virus 1, TZM-bl
VSV-Gpp [3] = assay type: cell-based, HIV lentivirus pseudotyped with VSV-G
HIV-1 92UG029 = experiment: Anti-HIV efficacy in fresh human PBMC (reverse transcriptase activity); assay type: cell-based; conditions: Human immunodeficiency virus 1, PBMC, 168 h; 92UG029 (clade A, X4); PBMCs, MOI = 0.1, 7 days
VSV-Gpp [4] = assay type: physicochemical, HIV lentivirus pseudotyped with VSV-G
Jc1 HCVcc = experiment: microbe, parasite or virus in culture; assay type: cell-based, HCV; conditions: Hepatitis C virus, Huh7.5, read-out: IC50, inactivation of cell-free HCVcc
HIV-1 Jv1083 = experiment: HIV infectivity assay in TZM-bl cells; assay type: cell-based; conditions: Jv1083 (clade G, R5); for IC50: Human immunodeficiency virus 1, TZM-bl
HIV-1 96USNG31 = experiment: Anti-HIV efficacy in fresh human PBMC (reverse transcriptase activity); assay type: cell-based; conditions: Human immunodeficiency virus 1, PBMC, 168 h; 96USNG31 (clade C, X4/R5); PBMCs, MOI = 0.1, 7 days
HIV-1 93BR029 = experiment: microbe, parasite or virus in culture; assay type: cell-based; conditions: 93BR029 (clade F, R5); for IC50: Human immunodeficiency virus 1, TZM-bl
HIV-1 92RW021 = experiment: HIV infectivity assay in TZM-bl cells; assay type: cell-based; conditions: 92RW021 (clade A, R5); for IC50: Human immunodeficiency virus 1, TZM-bl
HIV-1 92TH006 = experiment: HIV infectivity assay in TZM-bl cells; assay type: cell-based; conditions: 92TH006 (clade E, R5); for IC50: Human immunodeficiency virus 1, TZM-bl
HIV-1 93TH053 = experiment: HIV infectivity assay in TZM-bl cells; assay type: cell-based; conditions: 93TH053 (clade E, X4); for IC50: Human immunodeficiency virus 1, TZM-bl
HIV-1 92TH026 = experiment: HIV infectivity assay in TZM-bl cells; assay type: cell-based; conditions: 92TH026 (clade B, R5); for IC50: Human immunodeficiency virus 1, TZM-bl
HIV-1 93IN017 = experiment: HIV infectivity assay in TZM-bl cells; assay type: cell-based; conditions: 93IN017 (clade C, X4); for IC50: Human immunodeficiency virus 1, TZM-bl
VSV-Gpp [5] = test system: VSV-Gpp; remark: listed apart in the source
HIV-1 93BR021 = experiment: Anti-HIV efficacy in fresh human PBMC (reverse transcriptase activity); assay type: cell-based; conditions: Human immunodeficiency virus 1, PBMC, 168 h; 93BR021 (clade B, R5); PBMCs, MOI = 0.1, 7 days
HIV-1 RU132 = experiment: HIV infectivity assay in TZM-bl cells; assay type: cell-based; conditions: RU132 (clade G, R5); for IC50: Human immunodeficiency virus 1, TZM-bl
HIV-20DC310342 = experiment: HIV-2 infectivity assay in TZM-bl cells; assay type: cell-based; conditions: Human immunodeficiency virus 2, TZM-bl

Structure (SMILES): N=C1Sc2ccccc2C2=NCCCN12 [PD, PD 404,182]
- effect on infectivity of DenV [1]: no significant inhibitory effect
- activity loss in cervical fluid (VSV-Gpp [2]): no activity loss
- inhibition of HCVcc infectivity (HCVcc): > 10 fold
- IC50 (HIV-1 92RW016): 220 nM
- IC90 (HIV-1 92RW016): 540 nM
- IC50 (DMEM; IC90 per footnote) (HIV-1 92UG024; PD in DMEM + 10% FBS): 1400 ± 200 nM
- IC50 (Cervical Fluid; IC90 per footnote) (HIV-1 92UG024; PD in cervical fluids): 1800 ± 200 nM
- IC50 (Seminal Plasma; IC90 per footnote) (HIV-1 92UG024; PD in seminal plasma): 1580 ± 200 nM
- IC50 (HIV-1 92UG024; PD in DMEM + 10% FBS): 3330 nM
- IC50 (HIV-1 92UG024; PD in cervical fluids): 550 nM
- IC50 (HIV-1 92UG024; PD in seminal plasma): 420 nM
- IC50 (DMEM; IC90 per footnote) (HIV-1 92TH599; PD in DMEM + 10% FBS): 5900 ± 300 nM
- IC50 (Cervical Fluid; IC90 per footnote) (HIV-1 92TH599; PD in cervical fluids): 6400 ± 500 nM
- IC50 (Seminal Plasma; IC90 per footnote) (HIV-1 92TH599; PD in seminal plasma): 6310 ± 520 nM
- IC50 (HIV-1 92TH599; PD in DMEM + 10% FBS): 1800 nM
- IC50 (HIV-1 92TH599; PD in cervical fluids): 2200 nM
- IC50 (HIV-1 92TH599; PD in seminal plasma): 1930 nM
- reversal of PD's antiviral effect by liposomes (VSV-Gpp [3]): not able to reverse PD's antiviral effect
- IC50 (HIV-1 92UG029): 1180 nM
- IC90 (HIV-1 92UG029): 4670 nM
- long-term stability (antiviral potency) (VSV-Gpp [4]; pH 4): retains full antiviral potency; also recorded: retains its full potency
- long-term stability (VSV-Gpp [4]; pH 7): stable only at room temperature and 4 °C; also recorded: significantly compromised PD activity after 2 weeks
- stability in HEC gel (VSV-Gpp [4]; pH 7): not stable
- IC50 (Jc1 HCVcc): 11000 nM
- IC50 (HIV-1 Jv1083; PD in DMEM + 10% FBS): 1100 nM
- IC50 (HIV-1 Jv1083; PD in cervical fluids): 1500 nM
- IC50 (HIV-1 Jv1083; PD in seminal plasma): 1270 nM
- IC90 (HIV-1 Jv1083; PD in DMEM + 10% FBS): 3900 ± 300 nM
- IC90 (HIV-1 Jv1083; PD in cervical fluids): 4700 ± 100 nM
- IC90 (HIV-1 Jv1083; PD in seminal plasma): 4220 ± 390 nM
- IC50 (HIV-1 96USNG31): 140 nM
- IC90 (HIV-1 96USNG31): 1620 nM
- IC90 (HIV-1 93BR029; PD in DMEM + 10% FBS): 3500 ± 200 nM
- IC90 (HIV-1 93BR029; PD in cervical fluids): 4600 ± 300 nM
- IC90 (HIV-1 93BR029; PD in seminal plasma): 3720 ± 260 nM
- IC50 (HIV-1 93BR029; PD in DMEM + 10% FBS): 700 nM
- IC50 (HIV-1 93BR029; PD in cervical fluids): 1200 nM
- IC50 (HIV-1 93BR029; PD in seminal plasma): 850 nM
- IC90 (HIV-1 92RW021; PD in DMEM + 10% FBS): 3800 ± 300 nM
- IC90 (HIV-1 92RW021; PD in cervical fluids): 4400 ± 200 nM
- IC90 (HIV-1 92RW021; PD in seminal plasma): 4620 ± 320 nM
- IC50 (HIV-1 92RW021; PD in DMEM + 10% FBS): 430 nM
- IC50 (HIV-1 92RW021; PD in cervical fluids): 670 nM
- IC50 (HIV-1 92RW021; PD in seminal plasma): 580 nM
- IC50 (DMEM; IC90 per footnote) (HIV-1 92TH006; PD in DMEM + 10% FBS): 6600 ± 400 nM
- IC50 (Cervical Fluid; IC90 per footnote) (HIV-1 92TH006; PD in cervical fluids): 7600 ± 600 nM
- IC50 (Seminal Plasma; IC90 per footnote) (HIV-1 92TH006; PD in seminal plasma): 6730 ± 510 nM
- IC50 (HIV-1 92TH006; PD in DMEM + 10% FBS): 1800 nM
- IC50 (HIV-1 92TH006; PD in cervical fluids): 2300 nM
- IC50 (HIV-1 92TH006; PD in seminal plasma): 1960 nM
- IC90 (HIV-1 93TH053; PD in DMEM + 10% FBS): 5300 ± 300 nM
- IC90 (HIV-1 93TH053; PD in cervical fluids): 6400 ± 400 nM
- IC90 (HIV-1 93TH053; PD in seminal plasma): 6650 ± 480 nM
- IC50 (HIV-1 93TH053; PD in DMEM + 10% FBS): 1400 nM
- IC50 (HIV-1 93TH053; PD in cervical fluids): 1800 nM
- IC50 (HIV-1 93TH053; PD in seminal plasma): 1670 nM
- IC90 (HIV-1 92TH026; PD in DMEM + 10% FBS): 2800 ± 200 nM
- IC90 (HIV-1 92TH026; PD in cervical fluids): 3300 ± 100 nM
- IC90 (HIV-1 92TH026; PD in seminal plasma): 2950 ± 160 nM
- IC50 (HIV-1 92TH026; PD in DMEM + 10% FBS): 350 nM
- IC50 (HIV-1 92TH026; PD in cervical fluids): 610 nM
- IC50 (HIV-1 92TH026; PD in seminal plasma): 430 nM
- IC50 (DMEM; IC90 per footnote) (HIV-1 93IN017; PD in DMEM + 10% FBS): 1900 ± 200 nM
- IC50 (Cervical Fluid; IC90 per footnote) (HIV-1 93IN017; PD in cervical fluids): 2400 ± 200 nM
- IC50 (Seminal Plasma; IC90 per footnote) (HIV-1 93IN017; PD in seminal plasma): 2090 ± 190 nM
- IC50 (HIV-1 93IN017; PD in DMEM + 10% FBS): 400 nM
- IC50 (HIV-1 93IN017; PD in cervical fluids): 700 nM
- IC50 (HIV-1 93IN017; PD in seminal plasma): 450 nM
- stability in acidic buffer (VSV-Gpp [5]; pH 4): highly stable
- activity loss (VSV-Gpp [5]; pH 8): no activity loss
- antiviral activity lost (VSV-Gpp [5]; pH 8): ~20%
- activity loss (VSV-Gpp [5]; pH 10): ~20%
- antiviral activity lost (VSV-Gpp [5]; pH 10): ~50%
- IC50 (HIV-1 93BR021): 600 nM
- IC90 (HIV-1 93BR021): 4260 nM
- IC50 (HIV-1 RU132; PD in DMEM + 10% FBS): 700 nM
- IC50 (HIV-1 RU132; PD in cervical fluids): 900 nM
- IC50 (HIV-1 RU132; PD in seminal plasma): 740 nM
- IC90 (HIV-1 RU132; PD in DMEM + 10% FBS): 3100 ± 200 nM
- IC90 (HIV-1 RU132; PD in cervical fluids): 3900 ± 500 nM
- IC90 (HIV-1 RU132; PD in seminal plasma): 3280 ± 220 nM
- IC50 (HIV-20DC310342): 1800 nM
